Consider one substance from patent US20220023294A1, “SYNTHETIC LETHALITY AND THE TREATMENT OF CANCER” (PACYLEX PHARMACEUTICALS INC., priority 2011, published 2022).

The test system of test [1] is Ramos B lymphoma cells. The test is described as follows: Survival of Ramos cells transfected with pcDNA3.1-V5-NMT2 in the presence of TrisDBA (trypan blue exclusion). The test is classed as cell-based, human. As to conditions: TrisDBA 5 ug/ml, 24 hours. The method, then: B cells were transfected using the Neon® transfection system (Life technologies) following manufacturer's instructions and optimized protocol for Ramos B cells transfection (pulse voltage 1,300V; pulse width 20 ms, 2 pulses and 7.7.10^6 cells/mL) adapted for 100 μL tips. Classically, two transfections were pulled to obtained enough living cells to perform a viability assay.
(§1) B and T cell viability was measured using the trypan blue exclusion method. Cells were grown in confluency conditions (2×10^6 cells/mL maximum) assuring the minimum basal apoptosis. After incubation with NMT inhibitors, about 20 000 cells (10 μL) were incubated with 10 μL of TC10™ Trypan Blue Dye (Biorad) for 15 min. Cell viability was quantified using the TC10™ automated cell counter (Biorad).
In this example, transfection of Ramos B lymphoma cells (which, as shown herein, expresses NMT1) with pcDNA3.1-V5-NMT2 increased survival to TrisDBA (5 ug/ml) 2.5 fold vs control cells transfected with empty plasmid vector. In FIG. 6, 20×10^6 Ramos B lymphoma cells were transfected with 32 μg of DNA (pcDNA3.1-V5-empty or pcDNA3.1-V5-NMT2) using the Neon Transfection System (Invitrogen) following the recommended protocol for Ramos cell line (1,350 Volt, 30 ms). […] After a PBS wash, cells were resuspended and grown in RPMI containing TrisDBA (5 ug/ml) for 24 hours then counted using the trypan blue exclusion method (Panel A). […]

Test [2] deals with B cell lymphomas and T cell leukemias. The test is described as follows: Cell viability assay (trypan blue exclusion) after incubation with NMT inhibitors. The settings on record: 24 h, increasing concentration, control adjusted to 100%. In kind it is cell-based, human. The method, then:
Tris dibutylbenzinylidene acetone paladium (TrisDBA) was a kind gift of Dr. Arbiser. Cells were incubated at increasing concentrations for 24 hours with TrisDBA (or DMSO for control) or for 24 and 48 hours with DDD85646.
as §1
FIG. 2 depicts the sensitivity of various B cell lymphomas and T cell leukemias to the NMT inhibitors tris-dibenzylideneacetone-dipalladium (Tris-DBA). Various B and T cells were incubated for 24 h with increasing concentration of Tris DBA. Cell viability was measured using trypan blue exclusion method and adjusted to 100% for control.

The target in test [3] is T1, NMT1 (Homo sapiens, UniProt P30419).
T1 construct: His (N); made in house
T1 sequence (P30419 1-496): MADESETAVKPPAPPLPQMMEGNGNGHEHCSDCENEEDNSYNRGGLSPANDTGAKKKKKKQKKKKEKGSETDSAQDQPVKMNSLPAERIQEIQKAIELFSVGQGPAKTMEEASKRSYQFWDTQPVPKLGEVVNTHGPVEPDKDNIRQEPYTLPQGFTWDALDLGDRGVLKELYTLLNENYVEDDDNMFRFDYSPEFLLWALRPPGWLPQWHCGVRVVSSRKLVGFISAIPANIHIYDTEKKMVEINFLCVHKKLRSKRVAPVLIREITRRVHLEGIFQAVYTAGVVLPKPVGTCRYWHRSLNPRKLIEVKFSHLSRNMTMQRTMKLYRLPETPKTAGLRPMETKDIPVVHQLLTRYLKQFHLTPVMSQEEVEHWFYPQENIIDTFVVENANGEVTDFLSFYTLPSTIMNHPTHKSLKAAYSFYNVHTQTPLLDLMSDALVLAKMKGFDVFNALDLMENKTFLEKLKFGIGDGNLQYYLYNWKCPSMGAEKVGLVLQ
The test is described as follows: In vitro NMT activity (peptide myristoylation) assay with purified recombinant enzyme. The settings on record: purified recombinant NMT1, radiolabeled myristoyl peptide on phosphocellulose paper. In kind it is biochemical. The text has this: (§2) N-myristoyltransferase activity assay protocol was adapted from Raju, R. V., and Sharma, R. K. (1999) Preparation and assay of myristoyl-CoA:protein N-myristoyltransferase. Methods Mol Biol 116, 193-211. [^3H] myristoyl-CoA was freshly synthesized for each experiment, as previously described by Towler, D., and Glaser, L. (1986) Protein fatty acid acylation: enzymatic synthesis of an N-myristoylglycyl peptide. Proc Nal Acad Sci USA 83, 2812-2816. Briefly, cells were resuspended in 0.25 M sucrose buffer (50 mM NaH2PO4, pH 7.4) and subjected to 2 rounds of sonication at level 6.0 on a Branson Sonicator. […] Discs were washed (washing buffer: 25 mM Tris buffer, pH 7.4) to remove the residual radioactivity ([^3H]-myristate and [^3H]-myristoyl-CoA) while [^3H]-myristoyl-peptide is retained on the phosphocellulose paper. Radioactivity was quantified by liquid scintillation counting and converted into pMol of myristoylated peptide (Raju, R. V., and Sharna, R. K. (1999) Preparation and assay of myristoyl-CoA:protein N-myristoyltransferase. Methods Mol Biol 116, 193-211
(§3) NMT activity was assayed using a peptide myristoylation assay with purified recombinant NMT1 and NMT2. NMT activity was calculated from the amount of radiolabeled myristoyl peptide produced and detected on phosphocellulose paper (adapted from King et al. 1991, Anal Biochem.).

The target in test [4] is T2, NMT2 (Homo sapiens, UniProt O60551).
T2 construct: His (N); made in house
T2 sequence (O60551 1-498): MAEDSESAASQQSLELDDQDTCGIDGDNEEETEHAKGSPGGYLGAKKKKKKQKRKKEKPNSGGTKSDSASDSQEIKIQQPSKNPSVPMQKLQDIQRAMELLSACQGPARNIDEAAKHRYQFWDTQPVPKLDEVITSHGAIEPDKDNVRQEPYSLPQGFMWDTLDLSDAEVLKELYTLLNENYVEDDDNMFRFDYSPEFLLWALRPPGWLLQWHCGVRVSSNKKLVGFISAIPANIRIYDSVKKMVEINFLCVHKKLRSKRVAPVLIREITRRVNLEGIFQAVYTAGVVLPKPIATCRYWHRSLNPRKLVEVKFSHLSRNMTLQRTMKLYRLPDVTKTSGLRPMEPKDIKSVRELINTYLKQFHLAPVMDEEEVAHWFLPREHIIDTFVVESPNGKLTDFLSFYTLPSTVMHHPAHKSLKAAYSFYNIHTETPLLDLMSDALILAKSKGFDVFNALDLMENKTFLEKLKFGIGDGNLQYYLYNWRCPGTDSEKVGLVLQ
The test is described as above. In kind it is biochemical. As to conditions: purified recombinant NMT2, radiolabeled myristoyl peptide on phosphocellulose paper.
Text: as §2, §3

With “tris-dibenzylideneacetone-dipalladium [Tris-DBA]”, in test [1], the “Increased survival of NMT2-transfected cells vs control cells transfected with empty plasmid vector” value is given as 2.5 fold. Also, in test [2], the “Cell survival curves (sensitivity of B cell lymphomas versus other cells)” value was “more sensitive”. Besides, the “Inhibition of NMT activity” value in test [3] and in test [4] was “inhibits NMT in vitro” each time.
